Test results as given in patent US11332500B2, “Heterotandem bicyclic peptide complexes” (BicycleTx Limited, priority 2019, dated 2022).
Like-named read-outs stand apart in the source and are kept apart here. *1 amine or outer side, *2 acyl side, *3 side chain or, on linkers, in order; H or OH if unused. Where a SMILES comes first, the peptide text is derived from it. Bridges are numbered along the chain shown (N, C = ends). Roman numbers before positions name the chains, in order. [ ]: non-standard residue; d: D form. TATA = O=C(CC[*:1])N1CN(C(=O)CC[*:2])CN(C(=O)CC[*:3])C1; X1 = O=C(CCc1cn(CCOCCOCCOCCOCCOCCC(=O)[*:2])nn1)[*:1]; X2 = O=C(CCOCCOCCOCCOCCOCCn1cc(CCC(=O)[*:2])nn1)[*:1]; Dip = N[C@H](C(=O)O)C(c1ccccc1)c1ccccc1; Hyp = O=C(O)[C@@H]1C[C@@H](O)CN1; hArg = N=C(N)NCCCC[C@H](N)C(=O)O; tBuAla = CC(C)(C)C[C@H](N)C(=O)O; Cba = N[C@@H](CC1CCC1)C(=O)O; Nle = CCCC[C@H](N)C(=O)O

Legend:
[1] = Pharmacokinetics of CD137 heterotandem bicyclic peptide complexes in SD rats; conditions: rat, in vivo, male SD rats, IV Inf, plasma; for clearance: read-out: Clp; for half-life: read-out: T½ (converted); for Vd: read-out: Vdss
Method: Male SD Rats were dosed with 2 mg/kg of each heterotandem Bicycle peptide complex formulated in 25 mM Histidine HCl, 10% sucrose pH 7. Serial bleeding (about 80 μL blood/time point) was performed via submadibular or saphenous vein at each time point. All blood samples were immediately transferred into prechilled microcentrifuge tubes containing 2 μL K2-EDTA (0.5M) as anti-coagulant and placed on wet ice. Blood samples were immediately processed for plasma by centrifugation at approximately 4° C., 3000 g. The precipitant including internal standard was immediately added into the plasma, mixed well and centrifuged at 12,000 rpm, 4° C. for 10 minutes. The supernatant was transferred into pre-labeled polypropylene microcentrifuge tubes, and then quick-frozen over dry ice. The samples were stored at […] or below as needed until analysis. 7.5 μL of the supernatant samples were directly injected for LC-MS/MS analysis using an Orbitrap Q Exactive in positive ion mode to determine the concentrations of Bicycle. Plasma concentration versus time data were analyzed by non-compartmental approaches using the Phoenix WinNonlin 6.3 software program. C0, Cl, Vdss, T½, AUC(0-last), AUC(0-inf), MRT(0-last), MRT(0-inf) and graphs of plasma concentration versus time profile were reported.

CD137 = target: T1, CD137 (Homo sapiens, UniProt Q07011); experiment: CD137 reporter assay co-culture with RKO tumour cells (PD-L1/CD137 heterotandems); assay type: cell-based; conditions: Jurkat CD137 reporter cells co-cultured with RKO (PD-L1), 6 h; read-out: Fold Induction over background
T1 construct: host or cells: Jurkat reporter cells from the Promega kit, co-cultured with tumour cells (NCI-H292, PC3 or RKO)
T1 sequence (Q07011 24-255): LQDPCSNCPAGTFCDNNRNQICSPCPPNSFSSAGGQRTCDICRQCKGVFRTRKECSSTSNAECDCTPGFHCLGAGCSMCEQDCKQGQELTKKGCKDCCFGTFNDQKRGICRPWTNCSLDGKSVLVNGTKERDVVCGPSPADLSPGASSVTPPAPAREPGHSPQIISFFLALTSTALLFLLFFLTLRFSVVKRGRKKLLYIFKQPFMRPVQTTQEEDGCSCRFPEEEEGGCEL
Method: Culture medium, referred to as R1 media, is prepared by adding 1% FBS to RPMI-1640 (component of Promega kit CS196005). Serial dilutions of test articles in R1 are prepared in a sterile 96 well-plate. Add 25 μL per well of test articles or R1 (as a background control) to designated wells in a white cell culture plate. Tumour cells* are harvested and resuspended at a concentration of 400,000 cells/mL in R1 media. Twenty five (25) μL/well of tumour cells are added to the white cell culture plate. Jurkat cells (Promega kit CS196005, 0.5 mL) are thawed in the water bath and then added to 5 ml pre-warmed R1 media. Twenty five (25) μL/well of Jurkat cells are then added to the white cell culture plate. Incubate the cells and test articles for 6 h at 37° C., 5% CO2. At the end of 6 h, add 75 μL/well Bio-Glo™ reagent (Promega) and incubate for 10 min before reading luminescence in a plate reader (Clariostar, BMG). The fold change relative to cells alone (Jurkat cells+Cell line used in co-culture) is calculated and plotted in GraphPad Prism as log(agonist) vs response to determine EC50 (nM) and Fold Induction over background (Max).
The tumour cell type used in co-culture for EphA2 is PC3. The tumour cell type used in co-culture for PD-L1 is RKO.
A summary of the fold induction induced by PD-L1/CD137 heterotandem peptides in the CD137 reporter coculture assay with RKO cells is shown in Table 3.

Compound: CCCC[C@@H]1NC(=O)[C@H](Cc2ccc(O)cc2)NC(=O)[C@@H]2CCCN2C(=O)[C@H](CC(=O)O)NC(=O)[C@H](C)NC(=O)[C@H](Cc2ccccc2)NC(=O)[C@@H]2CSCCC(=O)N3CN(CN(C3)C(=O)CCSC[C@@H](C(=O)N[C@@H](C)C(N)=O)NC1=O)C(=O)CCSC[C@H](NC(C)=O)C(=O)N[C@@H](CC(C)(C)C)C(=O)N1CCC[C@H]1C(=O)N[C@@H](CCC(=O)O)C(=O)N[C@H](CCCCNC(=O)CCOCCOCCOCCOCCOCCn1cc(CCC(=O)NCCCC[C@H](NC(=O)[C@@H]3CSCCC(=O)N4CN5CN(C4)C(=O)CCSC[C@H](NC(=O)[C@H](CC(=O)O)NC(=O)[C@H](CCCCNC(=N)N)NC(=O)[C@H](C)NC(C)=O)C(=O)N4C[C@H](O)C[C@H]4C(=O)N[C@@H](CC(C)C)C(=O)N[C@@H](C(C)C)C(=O)N[C@@H](CC(N)=O)C(=O)N4CCC[C@H]4C(=O)N[C@@H](CC(C)C)C(=O)N[C@@H](CSCCC5=O)C(=O)N[C@@H](CC(C)C)C(=O)N[C@@H](Cc4c[nH]cn4)C(=O)N4CCC[C@H]4C(=O)N[C@H](CC(=O)O)C(=O)N[C@@H](Cc4c[nH]c5ccccc45)C(=O)N[C@@H](CCCCNC(=N)N)C(=O)N3)C(N)=O)nn1)C(=O)N1CCC[C@H]1C(=O)N[C@@H](Cc1ccc(O)cc1)C(=O)N2 [BCY12234] (I: Ac-A[hArg]DC[Hyp]LVNPLCLHP[dD]W[hArg]CK-NH2 / II: Ac-C[tBuAla]PE[dK]PYCFADPY[Nle]CA-NH2; linker I:4-I:11-I:18, II:1-II:8-II:15 via TATA; linker I:19-II:5 via X1)
- clearance ([1]; 2.0 mg/kg): 26 mL/min/kg
- half-life ([1]; 2.0 mg/kg): 25.2 min
- Vd ([1]; 2.0 mg/kg): 0.95 L/kg

Compound: CCCC[C@@H]1NC(=O)[C@H](Cc2ccc(O)cc2)NC(=O)[C@@H]2CCCN2C(=O)[C@H](CC(=O)O)NC(=O)[C@H](C)NC(=O)[C@H](Cc2ccccc2)NC(=O)[C@@H]2CSCCC(=O)N3CN(CN(C3)C(=O)CCSC[C@@H](C(=O)N[C@@H](C)C(N)=O)NC1=O)C(=O)CCSC[C@H](NC(C)=O)C(=O)N[C@@H](CC(C)(C)C)C(=O)N1CCC[C@H]1C(=O)N[C@@H](CCC(=O)O)C(=O)N[C@H](CCCCNC(=O)CCc1cn(CCOCCOCCOCCOCCOCCC(=O)NCCCC[C@@H]3NC(=O)[C@H](CO)NC(=O)[C@@H](NC(=O)[C@H](CCCCNC(=N)N)NC(=O)[C@H](CC(=O)O)NC(C)=O)CSCCC(=O)N4CN5CN(C4)C(=O)CCSC[C@@H](C(=O)N4CCC[C@H]4C(=O)N[C@@H](CO)C(=O)N[C@@H](Cc4c[nH]cn4)C(N)=O)NC(=O)[C@H](CC(C)C)NC(=O)[C@H](Cc4c[nH]cn4)NC(=O)[C@H](CC(C)C)NC(=O)[C@H](CCCCNC(C)=O)NC(=O)[C@H](CCC(N)=O)NC(=O)[C@H](CSCCC5=O)NC(=O)[C@H](CCSC)NC(=O)[C@H]([C@@H](C)O)NC(=O)[C@H](CC(C)C)NC(=O)[C@H](Cc4c[nH]c5ccccc45)NC(=O)CNC3=O)nn1)C(=O)N1CCC[C@H]1C(=O)N[C@@H](Cc1ccc(O)cc1)C(=O)N2 [BCY12230] (I: Ac-D[hArg]CSKGWLTMCQK(Ac)LHLCPSH-NH2 / II: Ac-C[tBuAla]PE[dK]PYCFADPY[Nle]CA-NH2; linker I:3-I:11-I:17, II:1-II:8-II:15 via TATA; linker I:5-II:5 via X2)
- fold induction (CD137): 10

Compound: CCCC[C@@H]1NC(=O)[C@H](Cc2ccc(O)cc2)NC(=O)[C@@H]2CCCN2C(=O)[C@H](CC(=O)O)NC(=O)[C@H](C)NC(=O)[C@H](Cc2ccccc2)NC(=O)[C@@H]2CSCCC(=O)N3CN(CN(C3)C(=O)CCSC[C@@H](C(=O)N[C@@H](C)C(N)=O)NC1=O)C(=O)CCSC[C@H](NC(C)=O)C(=O)N[C@@H](CC(C)(C)C)C(=O)N1CCC[C@H]1C(=O)N[C@@H](CCC(=O)O)C(=O)N[C@H](CCCCNC(=O)CCc1cn(CCOCCOCCOCCOCCOCCC(=O)NCCCC[C@@H]3NC(=O)[C@H](CCC(N)=O)NC(=O)[C@@H]4CSCCC(=O)N5CN(CN(C5)C(=O)CCSC[C@@H](C(=O)N5CCC[C@H]5C(=O)N[C@@H](CO)C(=O)N[C@@H](Cc5c[nH]cn5)C(N)=O)NC(=O)[C@H](CC(C)C)NC(=O)[C@H](Cc5c[nH]cn5)NC(=O)[C@H](CC(C)C)NC3=O)C(=O)CCSC[C@H](NC(=O)[C@H](CCCCNC(=N)N)NC(=O)[C@H](CC(=O)O)NC(C)=O)C(=O)N[C@@H](CO)C(=O)N[C@@H](C)C(=O)NCC(=O)N[C@@H](Cc3c[nH]c5ccccc35)C(=O)N[C@@H](CC(C)C)C(=O)N[C@@H]([C@@H](C)O)C(=O)N[C@@H](CCSC)C(=O)N4)nn1)C(=O)N1CCC[C@H]1C(=O)N[C@@H](Cc1ccc(O)cc1)C(=O)N2 [BCY12229] (I: Ac-D[hArg]CSAGWLTMCQKLHLCPSH-NH2 / II: Ac-C[tBuAla]PE[dK]PYCFADPY[Nle]CA-NH2; linker I:3-I:11-I:17, II:1-II:8-II:15 via TATA; linker I:13-II:5 via X2)
- fold induction (CD137): 8

Compound: CCCC[C@@H]1NC(=O)[C@H](Cc2ccc(O)cc2)NC(=O)[C@@H]2CCCN2C(=O)[C@H](CC(=O)O)NC(=O)[C@H](C)NC(=O)[C@H](Cc2ccccc2)NC(=O)[C@@H]2CSCCC(=O)N3CN(CN(C3)C(=O)CCSC[C@@H](C(=O)N[C@@H](C)C(N)=O)NC1=O)C(=O)CCSC[C@H](NC(C)=O)C(=O)N[C@@H](CC(C)(C)C)C(=O)N1CCC[C@H]1C(=O)N[C@@H](CCC(=O)O)C(=O)N[C@H](CCCCNC(=O)CCc1cn(CCOCCOCCOCCOCCOCCC(=O)N[C@H]3CSCCC(=O)N4CN5CN(C4)C(=O)CCSC[C@H](NC(=O)[C@H](CC(C)C)NC(=O)[C@@H]4CCCN4C(=O)[C@H](CC(N)=O)NC(=O)[C@H](C(C)C)NC(=O)[C@H](CC(C)C)NC(=O)[C@@H]4C[C@@H](O)CN4C3=O)C(=O)N[C@@H](CC(C)C)C(=O)N[C@@H](C(c3ccccc3)c3ccccc3)C(=O)N3CCC[C@H]3C(=O)N[C@H](CC(=O)O)C(=O)N[C@@H](Cc3c[nH]c4ccccc34)C(=O)N[C@@H]([C@@H](C)O)C(=O)N[C@H](C(N)=O)CSCCC5=O)nn1)C(=O)N1CCC[C@H]1C(=O)N[C@@H](Cc1ccc(O)cc1)C(=O)N2 [BCY13035] (I: Ac-C[tBuAla]PE[dK]PYCFADPY[Nle]CA-NH2 / II: C[Hyp]LVNPLCL[Dip]P[dD]WTC-NH2; linker I:1-I:8-I:15, II:1-II:8-II:15 via TATA; linker I:5-II:N via X1)
- clearance ([1]; 3.0 mg/kg): 11 mL/min/kg
- half-life ([1]; 3.0 mg/kg): 90 min
- Vd ([1]; 3.0 mg/kg): 0.63 L/kg

Compound: CCCC[C@@H]1NC(=O)[C@H](Cc2ccc(O)cc2)NC(=O)[C@@H]2CCCN2C(=O)[C@H](CC(=O)O)NC(=O)[C@H](C)NC(=O)[C@H](Cc2ccccc2)NC(=O)[C@@H]2CSCCC(=O)N3CN(CN(C3)C(=O)CCSC[C@@H](C(=O)N[C@@H](C)C(N)=O)NC1=O)C(=O)CCSC[C@H](NC(C)=O)C(=O)N[C@@H](CC(C)(C)C)C(=O)N1CCC[C@H]1C(=O)N[C@@H](CCC(=O)O)C(=O)N[C@H](CCCCNC(=O)CCc1cn(CCOCCOCCOCCOCCOCCC(=O)N[C@H]3CSCCC(=O)N4CN5CN(C4)C(=O)CCSC[C@@H](C(=O)N[C@H](C)C(N)=O)NC(=O)[C@H]([C@@H](C)O)NC(=O)[C@H](Cc4c[nH]c6ccccc46)NC(=O)[C@@H](CC(=O)O)NC(=O)[C@@H]4CCCN4C(=O)[C@H](C(c4ccccc4)c4ccccc4)NC(=O)[C@H](CC(C)C)NC(=O)[C@H](CSCCC5=O)NC(=O)[C@H](CC(C)C)NC(=O)[C@@H]4CCCN4C(=O)[C@H](CC(N)=O)NC(=O)[C@H](C(C)C)NC(=O)[C@H](CC4CCC4)NC(=O)[C@@H]4C[C@@H](O)CN4C3=O)nn1)C(=O)N1CCC[C@H]1C(=O)N[C@@H](Cc1ccc(O)cc1)C(=O)N2 [BCY13040] (I: C[Hyp][Cba]VNPLCL[Dip]P[dD]WTC[dA]-NH2 / II: Ac-C[tBuAla]PE[dK]PYCFADPY[Nle]CA-NH2; linker I:1-I:8-I:15, II:1-II:8-II:15 via TATA; linker I:N-II:5 via X2)
- clearance ([1]; 3.0 mg/kg): 10 mL/min/kg
- half-life ([1]; 3.0 mg/kg): 96 min
- Vd ([1]; 3.0 mg/kg): 0.63 L/kg
